From the supplement of paper PMC4862054

Tests used:
Test in all cases: normalised response (% of control), CellTiter-Glo; higher = more viable cells (100 = DMSO, 0 = benzethonium chloride kill control)
Details in all cases: incubation time: 72 h
MCF-10A = tested on: MCF-10A
How it was run: (§1)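 Plates were normalised with 0.1 % DMSO as 100 and a positive kill control as 0. Breast cancer cell lines in 20 µl suspension had been seeded into 384-well plates with compound at 5 concentrations in 10-fold steps over a compound-specific 10,000-fold range, incubated 72 h, and read for CellTox Green fluorescence (485/520 nm) followed by CellTiter-Glo luminescence. Each value is the normalised signal at a single concentration.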

MDA-MB-468 = tested on: MDA-MB-468
How it was run: as §1

CAL-85-1 = tested on: CAL-85-1
How it was run: as §1

HCC1143 = tested on: HCC1143
How it was run: as §1

BT-549 = tested on: BT-549
How it was run: as §1

CAL-51 = tested on: CAL-51
How it was run: as §1

BT-474 = tested on: BT-474
How it was run: as §1

MFM-223 = tested on: MFM-223
How it was run: as §1

SK-BR-3 = tested on: SK-BR-3
How it was run: as §1

HCC1937 = tested on: HCC1937
How it was run: as §1

MDA-MB-453 = tested on: MDA-MB-453
How it was run: as §1

MDA-MB-436 = tested on: MDA-MB-436
How it was run: as §1

HDQ-P1 = tested on: HDQ-P1
How it was run: as §1

DU-4475 = tested on: DU-4475
How it was run: as §1

HCC1599 = tested on: HCC1599
How it was run: as §1

CAL-148 = tested on: CAL-148
How it was run: as §1

Hs578T = tested on: Hs578T
How it was run: as §1

CAL-120 = tested on: CAL-120
How it was run: as §1

MDA-MB-231 = tested on: MDA-MB-231
How it was run: as §1

SMILES | normalised response (MCF-10A) [%] | normalised response (MDA-MB-468) [%] | normalised response (CAL-85-1) [%] | normalised response (HCC1143) [%] | normalised response (BT-549) [%] | normalised response (CAL-51) [%] | normalised response (BT-474) [%] | normalised response (MFM-223) [%] | normalised response (SK-BR-3) [%] | normalised response (HCC1937) [%] | normalised response (MDA-MB-453) [%] | normalised response (MDA-MB-436) [%] | normalised response (HDQ-P1) [%] | normalised response (DU-4475) [%] | normalised response (HCC1599) [%] | normalised response (CAL-148) [%] | normalised response (Hs578T) [%] | normalised response (CAL-120) [%] | normalised response (MDA-MB-231) [%]
CN(C)C[C@@H]1CCn2cc(c3ccccc32)C2=C(C(=O)NC2=O)c2cn(c3ccccc23)CCO1 [Ruboxistaurin] (1 nM) | 106 | 106 | 96.7 | 94.4 | 96.9 | 129 | 95.3 | 98.6 | 98.4 | 94.6 | 98.9 | 105 | 101 | 99.8 | 99.2 | 97.7 | 96.7 | 90.3 | 97.9
CCCCCCCCc1ccc(CCC(N)(CO)CO)cc1 [Fingolimod] (10 nM) | 105 | 94.2 | 111 | 99.5 | 98.1 | 125 | 99.7 | 101 | 105 | 100 | 105 | 94.5 | 104 | 103 | 120 | 94.5 | 103 | 95.5 | 99.2
Cc1ccc(NC(=O)c2ccc(CN3CCN(C)CC3)cc2)cc1Nc1nccc(-c2cccnc2)n1 [Imatinib] (1 nM) | 101 | 102 | 102 | 100 | 102 | 74.7 | 99.2 | 108 | 107 | 94.5 | 119 | 89.9 | 102 | 107 | 101 | 114 | 103 | 101 | 105
Cn1cncc1[C@@](N)(c1ccc(Cl)cc1)c1ccc2c(c1)c(-c1cccc(Cl)c1)cc(=O)n2C [Tipifarnib] (10 nM) | 92.3 | 94 | 108 | 101 | 98.9 | 121 | 94.4 | 95.2 | 85.1 | 82.3 | 84.6 | 88.7 | 87.7 | 102 | 94.3 | 96.7 | 95.8 | 93.1 | 98.6
CO[C@H]1C[C@@H]2CC[C@@H](C)[C@@](O)(O2)C(=O)C(=O)N2CCCC[C@H]2C(=O)O[C@H]([C@H](C)C[C@@H]2CC[C@@H](OCCO)[C@H](OC)C2)CC(=O)[C@H](C)/C=C(\C)[C@@H](O)[C@@H](OC)C(=O)[C@H](C)C[C@H](C)/C=C/C=C/C=C/1C [Everolimus] (0.01 nM) | 93.6 | 105 | 95.3 | 93 | 103 | 132 | 103 | 95.3 | 93.4 | 95.9 | 99.3 | 95.7 | 96.1 | 98.7 | 107 | 90.1 | 91.2 | 97.8 | 98.9
CO[C@H]1C[C@@H]2CC[C@@H](C)[C@@](O)(O2)C(=O)C(=O)N2CCCC[C@H]2C(=O)O[C@H]([C@H](C)C[C@@H]2CC[C@@H](OCCO)[C@H](OC)C2)CC(=O)[C@H](C)/C=C(\C)[C@@H](O)[C@@H](OC)C(=O)[C@H](C)C[C@H](C)/C=C/C=C/C=C/1C [Everolimus] (0.1 nM) | 96 | 84.8 | 90 | 92 | 88 | 115 | 92 | 88.4 | 92 | 88 | 95.8 | 90.7 | 94.4 | 95 | 90.5 | 80.7 | 89.5 | 95.9 | 99.2
O=C(O)CCCc1ccc(N(CCCl)CCCl)cc1 [Chlorambucil] (1 nM) | 100 | 96.9 | 99.4 | 102 | 102 | 128 | 102 | 102 | 95.6 | 102 | 118 | 132 | 101 | 102 | 98.4 | 96.8 | 107 | 97.1 | 101
Nc1ncnc2c1c(COc1cccc(Cl)c1)nn2C1CCOCC1 (1 nM) | 114 | 94.7 | 95.7 | 106 | 104 | 105 | 102 | 102 | 109 | 100 | 102 | 102 | 100 | 101 | 107 | 105 | 104 | 95.4 | 103
O=C1NC(=O)[C@@H](c2cn3c4c(cccc24)CCC3)[C@@H]1c1c[nH]c2ccccc12 [Tivantinib] (0.1 nM) | 101 | 104 | 96.2 | 97.9 | 104 | 87.5 | 102 | 103 | 108 | 95.6 | 92.5 | 106 | 101 | 98.8 | 107 | 101 | 103 | 101 | 97.8
COc1ccccc1S(=O)(=O)Nc1ccc2c(c1)CN(C)C(=O)N2 [PFI-1] (10 nM) | 103 | 95.3 | 94.6 | 102 | 90.1 | 102 | 99.7 | 109 | 88.4 | 94.5 | 97.2 | 97.1 | 96 | 109 | 88.6 | 108 | 106 | 91.8 | 103
Cc1ccc(NC(=O)c2ccc(CN3CCN(C)CC3)cc2)cc1Nc1nccc(-c2cccnc2)n1 [Imatinib] (10 nM) | 104 | 113 | 96 | 101 | 96.7 | 107 | 104 | 109 | 109 | 99.3 | 108 | 103 | 106 | 109 | 103 | 113 | 107 | 102 | 99.9
CN1CCN(CCOc2cc(OC3CCOCC3)c3c(Nc4c(Cl)ccc5c4OCO5)ncnc3c2)CC1 [Saracatinib] (1 nM) | 96.5 | 99.2 | 105 | 89.2 | 105 | 116 | 94.4 | 97.5 | 98.6 | 95.7 | 103 | 103 | 94.5 | 102 | 116 | 97.9 | 97.4 | 94.4 | 94.6
COc1ccc(-c2ccc3c(N4CCOC[C@@H]4C)nc(N4CCOC[C@@H]4C)nc3n2)cc1CO [AZD8055] (1 nM) | 85.7 | 90.5 | 93.5 | 86.8 | 98.2 | 116 | 90.8 | 86.8 | 87.1 | 91 | 104 | 89.3 | 95.2 | 95.5 | 108 | 89.3 | 93.7 | 90.3 | 95.2
O=C1NC(=O)[C@@H](c2cn3c4c(cccc24)CCC3)[C@@H]1c1c[nH]c2ccccc12 [Tivantinib] (1 nM) | 106 | 104 | 96.1 | 98.9 | 101 | 106 | 107 | 97.9 | 113 | 101 | 106 | 109 | 98.7 | 98 | 104 | 100 | 101 | 100 | 98.2
Nc1nc(OCc2cc(Br)cs2)c2[nH]cnc2n1 [Lomeguatrib] (10 nM) | 109 | 101 | 94.2 | 101 | 93.5 | 69.8 | 104 | 97.4 | 105 | 98.9 | 97.3 | 103 | 104 | 104 | 91.8 | 105 | 105 | 101 | 98.5
CN1CCN(CCOc2cc(OC3CCOCC3)c3c(Nc4c(Cl)ccc5c4OCO5)ncnc3c2)CC1 [Saracatinib] (10 nM) | 97.8 | 93.2 | 104 | 94.4 | 103 | 129 | 93.5 | 96 | 113 | 97.6 | 107 | 94.8 | 118 | 103 | 103 | 91.6 | 101 | 93.1 | 92.7
CC(C)c1c(C(=O)Nc2ccccc2)c(-c2ccccc2)c(-c2ccc(F)cc2)n1CC[C@@H](O)C[C@@H](O)CC(=O)O [Atorvastatin] (1 nM) | 99.1 | 94.2 | 98.7 | 98.2 | 96.9 | 89.8 | 94 | 97.6 | 103 | 98.1 | 107 | 95.5 | 95.9 | 100 | 96.5 | 103 | 98.9 | 92.8 | 95.2
C[C@]12CC[C@H](O)CC1=CC[C@@H]1[C@@H]2CC[C@]2(C)C(c3cccnc3)=CC[C@@H]12 [Abiraterone] (0.5 nM) | 102 | 109 | 106 | 94.7 | 105 | 95.7 | 104 | 98 | 106 | 96.2 | 114 | 94.7 | 106 | 94.5 | 119 | 108 | 102 | 97.6 | 105
C/C(=C\c1csc(C)n1)[C@@H]1C[C@@H]2O[C@]2(C)CCC[C@H](C)[C@H](O)[C@@H](C)C(=O)C(C)(C)[C@@H](O)CC(=O)O1 [Patupilone] (0.1 nM) | 102 | 107 | 104 | 97.6 | 98.7 | 81.4 | 110 | 103 | 98 | 98 | 101 | 98 | 105 | 106 | 108 | 113 | 99.3 | 104 | 101
